What was measured:
[1] = Pilot study (open phase IIa) after tympanoplasty: tolerability; format: in vivo, human; details: 12 patients
Protocol: (§1) After removing the ear-tamponade, which remained in place for 2 to 3 weeks postoperatively, 3 ml of the 1% aqueous NCT solution was applied once daily to the outer ear canal. The endpoint of the treatment was defined as a completely dry canal, corresponding to a clinical score of zero (see below for scoring).
The second criterion was subjective pain, ascertained by a visual analogue scale.
Before and at the end of the study an audiogram was performed in all patients.
All subjects completed the study.

[2] = tested on: outer ear canal; assay: Pilot study (open phase IIa), postoperative irrigation of external auditory canal after tympanoplasty: efficacy; format: in vivo, human; details: 12 patients
Protocol: Local irrigations of the external auditory canal with 3 ml of 1% N-chlorotaurine solution were performed once daily until the canal was dry.
An open phase IIa study was performed in 12 patients after tympanoplasty. They received a single-shot antibiotic therapy with 2 g Spizef (cefotiam) i.v. perioperatively.
as §1
The primary criterion for the judgement of the status of the external meatus was a six-scale clinical score (0-5) based on visual observation via ear microscopy (zero=dry outer ear canal; 5=moist outer ear canal with inflammation).
Clinical examination of the outer ear canal was performed daily for detection of moisture, signs of infection, and judgement of epithelisation of the neo-tympanon.
A completely dry external meatus (score zero) was considered as the endpoint criterion for the termination of the study.
Moisture and inflammation of the external auditory canal during and after irrigation with NCT were compared to those before treatment using the Wilcoxon test. P-values <0.05 were considered to indicate statistical significance. Due to the limited number of patients no corrections for multiple comparisons were applied.

[3] = pH of aqueous NCT solution; format: physicochemical; details: no buffers
[4] = tested on: open leg ulcer with fibrous coating; assay: Wound dressing soaked with NCT solution on open leg ulcer with fibrous coating (case report); format: in vivo, human; details: single patient
Protocol: A human patient suffering from an open leg ulcer with fibrous coating caused by a burn accident was treated two times daily with wound dressing soaked with aqueous 1% NCT solution. […] Microbiological cultures of swabs before and after therapy were sterile.

[5] = Storage stability of aqueous NCT solution; format: physicochemical; details: 1% (55 mM) aqueous solution stored at 2-4° C.
Protocol: Pure NCT as a crystalline sodium salt was dissolved in sterile distilled water to a concentration of 1% (55 mM). Purity was verified by iodometric titration and spectrophotometry. […] Solutions were stored at 2-4° C., where they are stable for 1 year, and allowed to reach room temperature before application to the patients.

[6] = tested on: oozing ear channel; assay: Instillation/rinsing of the oozing ear channel with NCT solution after tympanoplasty (case reports); format: in vivo, human
From the text: Rinsing the ear channel with NCT solution provokes in general a drying of the ear channel and the tympanoplastic within 1-2 days.
A human patient with a traumatic perforation of the tympanic membrane was provided with a tympanoplasty. After removing incrustations and granulation tissue, the destroyed tympanic membrane was excised and substituted by a fascia temporalis. After taking away the tamponade, the microbiological culture of a swab from the reconstructed tympanic membrane and the ear channel was sterile. Subsequently, the oozing ear channel was treated one time daily for two days by instillation of 2 mL of aqueous 1% NCT solution. […] The complete epithelization was achieved 3 days earlier than by the conventional treatment with fuchsine.
A human patient suffering from a perforation of the tympanic membrane caused by a chronic inflammation of the middle ear received tympanoplasty. After removing incrustations and granulation tissue, the destroyed tympanic membrane was excised and substituted by a fascia temporalis. After taking away the tamponade, the microbiological culture of a swab from the reconstructed tympanic membrane and the ear channel was sterile. Subsequently, the oozing and swollen ear channel was treated one time daily for five days by instillation of 2 mL of aqueous 1% NCT solution. […] The complete epithelization was achieved 3 days earlier than by the conventional treatment with fuchsine.

[7] = single patient after tympanoplasty, 2 mL aqueous 1% NCT solution one time daily

Compound: O=S(=O)(O)CCNCl [NCT, N-chlorotaurine]
- allergic reactions during the whole period of treatment ([1]; 3 ml 1% NCT once daily): no signs of allergic reactions
- damage to the inner ear (audiogram before and after treatment) ([1]; 3 ml 1% NCT once daily): no signs of damage to the inner ear
- dizziness or nystagmus ([1]; 3 ml 1% NCT once daily): No dizziness or nystagmus occurred
- subjective pain (visual analogue scale) ([1]; 3 ml 1% NCT once daily): without occurrence of any pain
- tolerability of therapy ([1]; 3 ml 1% NCT once daily to outer ear canal): tolerated very well
- epithelisation of the new tympanon on ear microscopy ([2]; 3 ml 1% NCT once daily): proceeded regularly without granulation
- infection in the postoperative course ([2]; 3 ml 1% NCT once daily): No infection occurred
- necessary time for achieving a score of zero (range) ([2]; 3 ml 1% NCT once daily): 2 to 5 days
- time needed for complete epithelisation (mean±SD) ([2]; 3 ml 1% NCT once daily): 22.6 ± 3.5 days
- time needed for complete epithelisation (range) ([2]; 3 ml 1% NCT once daily): 18 to 31 days
- average clinical score (0-5) ([2]; 3 ml 1% NCT once daily, days 2-5 vs day 1, Wilcoxon p=0,001-0,002): decreased daily
- necessary time for achieving a score of zero (mean±SD) ([2]; 3 ml 1% NCT once daily, score zero = dry outer ear canal): 2.75 ± 0.87 days
- drying of the outer ear canal ([2]; 3 ml 1% aqueous NCT once daily): Rapid drying of the outer ear canal was detected in all patients
- pH of aqueous solutions [3]: 8
- treatment time after which fibrous coating disappeared ([4]; burn accident, dressing soaked with aqueous 1% NCT solution two times daily): three
- microbiological cultures of swabs before and after therapy ([4]; aqueous 1% NCT solution two times daily): sterile
- healing process ([4]; dressing soaked with aqueous 1% NCT solution two times daily): went on without problems
- stability of solutions on storage [5]: 1 year
- period of oozing subsequent to operations ([6]; e.g. otoplastic operations, general statement): reduced the period of oozing
- drying of the ear channel and the tympanoplastic ([6]; rinsing the ear channel with NCT solution, general statement): 1 to 2 days
- time after which oozing ceased ([6]; single patient after tympanoplasty, 2 mL aqueous 1% NCT solution instilled one time daily): three
- time after which swelling ceased ([6]; single patient after tympanoplasty, 2 mL aqueous 1% NCT solution instilled one time daily for five days): two
- complete epithelization achieved earlier than by conventional treatment with fuchsine [6, 7]: 3 days
- incorporation of the temporal fascia [6, 7]: proceeded without problems

Source: US20070010582A1, “Use of N-chlorotaurine for treatment of oozing tissue deficiencies” (priority 2005, published 2007)
